The text below walks through data of US7973034B2, “Amide, aryl sulfonamide, aryl urea, and α,β-diketone derived carboxylesterase inhibitors, and their methods of use” (priority 2003, dated 2011).

Like-named read-outs stand apart in the source and are kept apart here. Where only a bound is given, the exact number is not on record here.

Common to all, as to assay: biochemical
In assay [1] the target is T1, human small intestine carboxylesterase (hiCE) (Homo sapiens, UniProt O00748).
T1 sequence (O00748 27-559): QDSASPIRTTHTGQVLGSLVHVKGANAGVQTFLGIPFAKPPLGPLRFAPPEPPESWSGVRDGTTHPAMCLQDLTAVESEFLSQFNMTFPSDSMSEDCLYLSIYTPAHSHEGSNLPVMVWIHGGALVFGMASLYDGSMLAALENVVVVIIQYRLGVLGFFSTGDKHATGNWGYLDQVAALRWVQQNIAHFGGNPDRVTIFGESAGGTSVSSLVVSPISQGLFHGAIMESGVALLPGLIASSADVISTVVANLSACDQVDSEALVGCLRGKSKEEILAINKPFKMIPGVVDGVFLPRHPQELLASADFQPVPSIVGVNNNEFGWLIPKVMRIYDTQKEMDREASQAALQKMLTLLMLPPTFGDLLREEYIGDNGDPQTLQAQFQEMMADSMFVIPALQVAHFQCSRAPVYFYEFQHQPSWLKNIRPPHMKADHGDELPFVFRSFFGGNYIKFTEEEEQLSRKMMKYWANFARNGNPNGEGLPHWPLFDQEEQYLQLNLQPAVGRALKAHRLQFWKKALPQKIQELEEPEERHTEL
It counts as biochemical.

Assay [2] has as its target T2, human liver carboxylesterase (hCE1) (Homo sapiens, UniProt P23141).
T2 sequence (P23141 18-567): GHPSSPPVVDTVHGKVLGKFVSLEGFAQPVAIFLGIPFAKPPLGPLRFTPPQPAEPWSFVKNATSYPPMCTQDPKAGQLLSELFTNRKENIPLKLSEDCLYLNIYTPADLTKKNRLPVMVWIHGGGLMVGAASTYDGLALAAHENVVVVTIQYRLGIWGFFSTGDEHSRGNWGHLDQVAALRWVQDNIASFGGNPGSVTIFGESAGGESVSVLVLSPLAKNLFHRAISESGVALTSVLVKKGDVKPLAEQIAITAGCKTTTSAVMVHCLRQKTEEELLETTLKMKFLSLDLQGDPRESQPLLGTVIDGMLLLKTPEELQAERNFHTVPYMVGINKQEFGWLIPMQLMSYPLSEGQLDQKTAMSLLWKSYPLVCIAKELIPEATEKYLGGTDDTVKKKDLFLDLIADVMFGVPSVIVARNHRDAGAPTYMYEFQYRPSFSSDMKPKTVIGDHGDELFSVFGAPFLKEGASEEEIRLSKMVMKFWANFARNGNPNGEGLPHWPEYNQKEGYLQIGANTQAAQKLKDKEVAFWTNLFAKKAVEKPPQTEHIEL
Format: biochemical.

In assay [3] the target is T3, human acetylcholinesterase (hAcChE) (Homo sapiens, UniProt P22303).
T3 construct: purchased Sigma Biochemicals (St. Louis, Mo.)
It counts as biochemical. As for the experimental part:
Data was transferred to GraphPad Prism software, and Ki values were calculated as described in the Example above.

For assay [4], the target named is T4, rabbit liver carboxylesterase (rCE) (Oryctolagus cuniculus, UniProt P12337).
T4 sequence (P12337 19-565): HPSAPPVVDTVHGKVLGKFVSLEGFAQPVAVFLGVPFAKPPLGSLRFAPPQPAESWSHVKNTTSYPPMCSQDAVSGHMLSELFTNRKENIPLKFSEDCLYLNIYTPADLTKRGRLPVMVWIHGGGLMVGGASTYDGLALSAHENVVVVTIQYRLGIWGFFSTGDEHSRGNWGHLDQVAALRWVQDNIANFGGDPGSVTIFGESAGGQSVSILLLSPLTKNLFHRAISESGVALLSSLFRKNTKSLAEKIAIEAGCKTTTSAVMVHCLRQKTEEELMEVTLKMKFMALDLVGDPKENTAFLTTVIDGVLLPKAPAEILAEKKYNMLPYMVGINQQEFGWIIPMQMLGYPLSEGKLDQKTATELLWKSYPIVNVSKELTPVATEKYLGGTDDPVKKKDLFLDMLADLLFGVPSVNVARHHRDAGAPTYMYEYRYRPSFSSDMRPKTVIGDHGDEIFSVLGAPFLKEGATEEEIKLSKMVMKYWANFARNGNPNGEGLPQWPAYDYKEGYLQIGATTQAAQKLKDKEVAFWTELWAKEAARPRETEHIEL
Format: biochemical.

Assay [5] addresses human butyrylcholinesterase (hBuChE) (Homo sapiens, UniProt P06276).
[6] abbreviates: acetylthiocholine as substrate, Table 6, read-out: hAcChE Ki.
Where [7] appears, read: o-NPA as substrate, Table 6, read-out: rCE Ki ± SE.
[8] abbreviates: o-NPA as substrate, Table 6, read-out: hCE1 Ki ± SE.
[9] abbreviates: butyrylthiocholine as substrate, Table 6, read-out: hBuChE Ki.
[10] abbreviates: o-NPA as substrate, Table 6, read-out: hiCE Ki ± SE.

T3 sequence (P22303 32-614): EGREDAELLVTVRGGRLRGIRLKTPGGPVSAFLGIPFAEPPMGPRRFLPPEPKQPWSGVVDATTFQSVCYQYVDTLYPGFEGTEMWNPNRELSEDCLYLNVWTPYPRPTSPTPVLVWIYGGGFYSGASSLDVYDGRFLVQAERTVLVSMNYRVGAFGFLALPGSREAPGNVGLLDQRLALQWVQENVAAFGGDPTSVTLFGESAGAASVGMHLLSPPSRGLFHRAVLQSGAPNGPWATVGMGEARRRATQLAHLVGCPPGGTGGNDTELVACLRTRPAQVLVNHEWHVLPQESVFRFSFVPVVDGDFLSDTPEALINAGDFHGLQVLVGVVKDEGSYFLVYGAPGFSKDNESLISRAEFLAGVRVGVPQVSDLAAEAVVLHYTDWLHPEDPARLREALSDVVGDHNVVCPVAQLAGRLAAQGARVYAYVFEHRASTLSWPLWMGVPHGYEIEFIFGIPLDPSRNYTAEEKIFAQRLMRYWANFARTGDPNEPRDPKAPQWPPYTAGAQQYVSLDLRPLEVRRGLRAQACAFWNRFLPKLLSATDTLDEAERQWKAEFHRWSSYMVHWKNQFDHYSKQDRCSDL
Chain of human butyrylcholinesterase (hBuChE) (P06276 29-602): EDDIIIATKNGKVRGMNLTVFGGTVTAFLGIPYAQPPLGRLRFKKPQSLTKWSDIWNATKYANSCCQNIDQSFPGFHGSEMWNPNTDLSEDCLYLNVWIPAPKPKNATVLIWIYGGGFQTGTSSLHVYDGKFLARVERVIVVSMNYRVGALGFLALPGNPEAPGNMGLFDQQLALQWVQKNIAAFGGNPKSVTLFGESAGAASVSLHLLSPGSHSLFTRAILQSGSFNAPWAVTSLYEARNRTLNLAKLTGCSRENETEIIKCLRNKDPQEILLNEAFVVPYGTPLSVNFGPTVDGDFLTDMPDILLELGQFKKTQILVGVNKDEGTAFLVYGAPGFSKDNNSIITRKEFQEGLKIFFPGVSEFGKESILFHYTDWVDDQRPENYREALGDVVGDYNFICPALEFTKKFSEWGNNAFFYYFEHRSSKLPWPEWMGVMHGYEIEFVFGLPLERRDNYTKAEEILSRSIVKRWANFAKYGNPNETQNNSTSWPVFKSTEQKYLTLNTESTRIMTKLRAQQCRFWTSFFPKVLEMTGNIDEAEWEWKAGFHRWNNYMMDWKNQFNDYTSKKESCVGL

As for `O=C1C=Cc2ccccc2C1=O` [Compound 29, Naphthalene-1,2-dione], the “inhibition of hiCE” value in assay [1] is “inhibition”. In addition, the “inhibition of hCE1” value in assay [2] is given as “inhibition”. Besides, the “inhibition of hAcChE” value in assay [3] was “inhibited”. Moreover, in assay [4], the “inhibition of rCE” value is reported as “inhibition”.
The term Ki denotes the equilibrium dissociation constant of an inhibitor or competing ligand from its target. For the molecule `O=C(C(=O)c1ccc(C(=O)C(=O)c2ccccc2)cc1)c1ccccc1` [Compound 38, 1-{4-[oxo(phenyl)acetyl]phenyl}-2-phenylethane-1,2-dione], the results for the Ki in assay [3] (setting [6]) and in assay [4] (setting [7]) were > 100 µM and 6.1 ± 0.6 nM, respectively.
Regarding `O=C(C(=O)c1ccc(Br)c([N+](=O)[O-])c1)c1ccc(Br)c([N+](=O)[O-])c1` [Compound 4, 1,2-bis(4-bromo-3-nitrophenyl)ethane-1,2-dione], the Ki in assay [1] is > 100000 nM; in assay [2] (setting [8]), > 100 µM; in assay [5] (setting [9]), > 100 µM; in assay [3], > 100 µM; in assay [4] (setting [7]) it was 8.7 ± 1.3 nM.
With `O=C(C(=O)c1ccc(Br)cc1)c1ccc(Br)cc1` [Compound 15, 1,2-bis(4-bromophenyl)ethane-1,2-dione], the Ki was > 100 µM in assay [2] (setting [8]), > 100 µM in assay [5], > 100 µM in assay [3] (setting [6]) and 4.1 ± 0.5 nM in assay [4] (setting [7]).
With `O=C(C(=O)c1cc(Br)ccc1O)c1cc(Br)ccc1O` [Compound 9, 1,2-bis(5-bromo-2-hydroxyphenyl)ethane-1,2-dione], the inhibition constant (Ki) in assay [2] is > 100 µM; in assay [5] (setting [9]), > 100 µM; in assay [3] it was > 100 µM; in assay [4] (setting [7]), 53.5 ± 9.4 nM.
For the molecule `O=C(C(=O)c1ccc(O)cc1O)c1ccc(O)cc1O` [Compound 10, 1,2-bis(2,4-dihydroxyphenyl)ethane-1,2-dione], the Ki is 1730 nM in assay [1] (setting [10]); > 100 µM in assay [2] (setting [8]); > 100 µM in assay [5]; > 100 µM in assay [3] (setting [6]); > 100000 nM in assay [4] (setting [7]).
For `O=C(C(=O)c1cccc([N+](=O)[O-])c1)c1cccc([N+](=O)[O-])c1` [Compound 34, 1,2-bis(3-nitrophenyl)ethane-1,2-dione], the Ki in assay [2] (setting [8]) was 18.1 µM; in assay [5] (setting [9]), > 100 µM; in assay [3], > 100 µM; in assay [4] (read-out: rCE Ki ± SE) it was 267 ± 30 nM.
For `COc1ccc(C(=O)C(=O)c2ccc(OC)cc2)cc1` [Compound 21, 1,2-bis(4-methoxyphenyl)ethane-1,2-dione], the Ki in assay [2] (setting [8]) was 3.41 µM; in assay [5], > 100 µM; in assay [3] (setting [6]), > 100 µM; in assay [4] (setting [7]), 580 ± 157 nM.
Turning to `COc1ccc(C(=O)C(=O)c2ccc(OC)c([N+](=O)[O-])c2)cc1[N+](=O)[O-]` [Compound 37, 1,2-bis(4-methoxy-3-nitrophenyl)ethane-1,2-dione], the Ki in assay [1] is > 100000 nM; in assay [2], > 100 µM; in assay [5] (setting [9]), > 100 µM; in assay [3], > 100 µM.
Turning to `O=C(C(=O)c1ccc(Cl)cc1)c1ccc(Cl)cc1` [Compound 18, 1,2-bis(4-chlorophenyl)ethane-1,2-dione], the Ki in assay [2] (setting [8]) was > 100 µM; in assay [5] it was > 100 µM; in assay [3] (setting [6]), > 100 µM; in assay [4] (setting [7]), 14.1 ± 2.5 nM.
For `COc1ccc(C(=O)C(=O)c2ccccc2Cl)cc1OC` [Compound 8, 1-(2-chlorophenyl)-2-(3,4-dimethoxyphenyl)ethane-1,2-dione], the Ki in assay [2] (setting [8]) is 3.3 µM; in assay [5], > 100 µM; in assay [4] (setting [7]) it was 36 ± 12 nM.
With `O=C(C(=O)c1ccc(O)c([N+](=O)[O-])c1)c1ccc(O)c([N+](=O)[O-])c1` [Compound 36, 1,2-bis(4-hydroxy-3-nitrophenyl)ethane-1,2-dione], the Ki in assay [1] is > 100000 nM; in assay [5] (setting [9]), > 100 µM; in assay [3], > 100 µM; in assay [4] it was > 100000 nM.
Turning to `Cc1ccc(C(=O)C(=O)c2ccccc2)cc1` [Compound 32, 1-(4-methylphenyl)-2-phenylethane-1,2-dione], the inhibition constant Ki in assay [2] (setting [8]) is 0.125 ± 0.015 µM; in assay [5] (setting [9]), > 100 µM; in assay [3] (setting [6]), > 100 µM; in assay [4] (setting [7]) it was 119 ± 20 nM.
In the case of `O=C(C(=O)c1ccc([N+](=O)[O-])cc1[N+](=O)[O-])c1ccccc1` [Compound 11, 1-(2,4-dinitrophenyl)-2-phenylethane-1,2-dione], the inhibition constant (Ki) in assay [2] (setting [8]) was > 100 µM; in assay [5] (setting [9]), > 100 µM; in assay [3], > 100 µM; in assay [4] (setting [7]), 520 ± 31 nM.
With `CN(C)c1ccc(C(=O)C(=O)c2ccc(N(C)C)cc2)cc1` [Compound 13, 1,2-bis[4(dimethylamino)phenyl]ethane-1,2-dione], the Ki was > 100000 nM in assay [1] (setting [10]); > 100 µM in assay [2] (setting [8]); > 100 µM in assay [5] (setting [9]); > 100 µM in assay [3] (setting [6]); 2400 nM in assay [4] (setting [7]).
Turning to `Cc1cc([N+](=O)[O-])ccc1NC(=O)Nc1cccc(F)c1` [Compound 55, N-(3-fluorophenyl)-N′-(2-methyl-4-nitrophenyl)urea], the Ki in assay [1] (o-NPA as substrate, Table 5, read-out: Ki hiCE) is 1280 nM; in assay [2] (o-NPA as substrate, Table 5, read-out: Ki hCE1), > 100 µM; in assay [3] (acetylthiocholine substrate, Table 5, read-out: Ki hAcChE), > 100 µM.
`O=C(C(=O)c1ccccc1Cl)c1ccccc1Cl` [Compound 30, 1,2-bis(2-chlorophenyl)ethane-1,2-dione]: the Ki is 1.65 µM in assay [2] (read-out: hCE1 Ki ± SE), > 100 µM in assay [5] (setting [9]), > 100 µM in assay [3] and 220 ± 37 nM in assay [4] (setting [7]).
For the molecule `O=C(C(=O)c1ccc(O)cc1)c1ccc(O)cc1` [Compound 35, 1,2-bis(4-hydroxyphenyl)ethane-1,2-dione], the Ki is 1200 nM in assay [1] (setting [10]); > 100 µM in assay [2] (setting [8]); > 100 µM in assay [5]; > 100 µM in assay [3] (setting [6]); > 100000 nM in assay [4] (setting [7]).
As to `O=C(C(=O)c1ccc(Cl)cc1)c1ccccc1` [Compound 31, 1-(4-chlorophenyl)-2-phenylethane-1,2-dione], the Ki is 0.0474 ± 0.0068 µM in assay [2] (setting [8]), > 100 µM in assay [5], > 100 µM in assay [3] (setting [6]) and 23.9 ± 2.9 nM in assay [4] (setting [7]).
As for `O=C(C(=O)c1c(Cl)c(Cl)c(Cl)c(Cl)c1Cl)c1c(F)c(F)c(F)c(F)c1F` [Compound 12, 1-(pentachlorophenyl)-2-(pentafluorophenyl)ethane-1,2-dione], the Ki is 1.69 µM in assay [2] (read-out: hCE1 Ki ± SE), > 100 µM in assay [5] (setting [9]), > 100 µM in assay [3] and 823 ± 215 nM in assay [4] (setting [7]).
Take `COc1cccc(C(=O)C(=O)c2cccc(OC)c2)c1` [Compound 33, 1,2-bis(3-methoxyphenyl)ethane-1,2-dione]: the values for the Ki in assay [2] (setting [8]), in assay [5] and in assay [4] (setting [7]) were 1.54 µM, > 100 µM and 72.1 ± 9.1 nM, respectively.
